Measurements as given in US20200306313A1, “METHODS AND COMPOSITIONS FOR NON-CYTOTOXIC STEM CELL TRANSPLANTATION” (THE BOARD OF REGENTS OF THE UNIVERSITY OF TEXAS SYSTEM, priority 2014, published 2020).

Legend:
[1] = without irradiation and chemotherapy; cited from earlier work
[2] = test system: MitoPark™ mice; experiment: Spontaneous locomotor activity of MitoPark mice; type: in vivo
Description: Vertical movements declined earlier and faster than horizontal movements (data not shown), modeling the early occurrence of axial postural instability in PD. […] The MitoPark™ mice began to lose weight from ˜20 weeks and died at 29-33 weeks of age, at which point the majority of substantia nigra DA neurons had been lost.

[3] = test system: TH-positive cells in the SNpc; experiment: Continuous MPTP osmotic minipump infusion, TH-positive and GFP cells in SNpc; type: in vivo, mice; conditions: continuous infusion 5 mg MPTP/kg daily for 28 days
Procedure: FIGS. 7A-B. Plots of quantitative stereologic data illustrating TH-positive cells in the SNpc from mice that were continuously treated with saline (n=3) or 5 mg MPTP/kg daily (n=2) for 28 days (FIG. 7A). Semi-quantitative analysis of GFP-positive cells in the nigra of mice that were continuously treated with saline (n=3) or 5 mg MPTP/kg daily (n =2) for 28 days. Each bar represents the mean±standard error of the total number of GFP-positive cells per five representative sections of substantia nigra pars compacta per animal (FIG. 7B).
The minipumps were implanted subcutaneously on the upper back of the animal. The minipumps delivers saline or MPTP at a flow rate 0.35μ1/hr for 28 days. The concentration of MPTP solution was adjusted in such a way that the animals receive or 5 mg MPTP/kg daily for 28 days. On day 30 (after the start of MPTP or saline) the animals were killed and the brains were analyzed for the loss of TH-posive cells and the recruitment bone marrow derived GFP cells in the SNpc.

[4] = test system: mice; experiment: Motor coordination tests in MPTP-only model; type: in vivo; conditions: MPTP-treated group vs saline-treated controls
Description: MPTP/probenecid mouse model. […] In addition, spontaneous recovery of the nigrostriatal system that is typically observed with this regimen places limits on detection of changes in motor coordination. Mice were subjected to tests for motor coordination, including rotarod test, gait test/foot print analysis, pole test, beam walking test, and grid test.

[5] = test system: TH-positive neurons in the SNpc; experiment: Stereology of TH-positive neurons in SNpc after MPTP; conditions: MPTP-alone regimen
Procedure: (§1) Eight weeks after transplantation, recipient mice were injected with MPTP to induce dopaminergic neurodegeneration. MPTP dissolved in saline was injected subcutaneously into MSP-GDNF and MSP-GFP mice as follows: 15 mg/kg free base MPTP on day 1, 25 mg/kg on day 2, and 30 mg/kg on days 3-7. Control mice were treated with saline following the same regimen. Nine weeks after the last injection of MPTP or saline, MSP-GFP mice were sacrificed to evaluate the differentiation of gene-modified macrophages into microglia and their recruitment to substantia nigra.
Three or nine weeks after the last MPTP or saline injection, recipient mice were sacrificed and the neuroprotective effect of macrophage-mediated GDNF delivery on the nigrostriatal dopaminergic system was assessed by quantitative analysis of TH-positive neurons in the substantia nigra pars compacta (SNpc), as well as the density of TH-positive terminals in the striatum. […] In addition, total number of Nissl-stained neurons in the SNpc was counted for each treatment group to make sure that GDNF treatment indeed prevented actual cell death (FIG. 8).

[6] = test system: substantia nigra microglia; experiment: Recruitment of bone marrow-derived microglia to substantia nigra after MPTP; type: in vivo; conditions: MSP-GFP mice nine weeks after the last injection of MPTP
Procedure: as §1

[7] = cited from earlier work

c1cc(CN2CCCNCCNCCCNCC2)ccc1CN1CCCNCCNCCCNCC1 [AMD3100]
effectiveness as conditioning regimen [1]: not to be sufficiently effective

N[C@@H](Cc1ccc(O)c(O)c1)C(=O)O [L-DOPA]
locomotor deficits [2]: transiently reversed

CN1CC=C(c2ccccc2)CC1 [MPTP, 1-methyl-4-phenyl-1,2,3,6-tetrahydropyridine]
increase in the number of bone marrow derived GFP cells in the SNpc [3]: four-fold
loss of TH-positive cells in the SNpc [3]: approximately 31%
motor coordination (rotarod, gait/foot print, pole, beam walking, grid test) [4]: None of these tests showed statistically significant differences
reduction in TH-positive cells [5]: approximately 50%
proportion of total microglia (Iba1-positive) in the nigra that were bone marrow derived [6]: 47%

B1: glial cell line derived neurotrophic factor (protein, UniProt P39905 78-211, looked up)
Glial cell line-derived …: SPDKQMAVLPRRERNRQAAAANPENSRGKGRRGQRGKNRGCVLTAIHLNVTDLGLGYETKEELIFRYCSGSCDAAETTYDKILKNLSRNRRLVSDKVGQACCRPIAFDDDLSFLDDNLVYHILRKHSAKRCGCI
side effects ([7]; direct brain infusion): side effects, including allodynia and weight loss
cerebellar toxicity ([7]; high doses (100 μg/day) intraputamenal): significant cerebellar Purkinje cell death
